Test results from patent US20150259331A1, “PROTOZOAN PARASITE GROWTH INHIBITORS” (Northeastern University, priority 2014, published 2015).
Read-outs that look alike come from different tables or passages of the source.

Tests used:
[1] = system: T. brucei brucei Lister 427; assay: Trypanosome replication assay; assay type: cell-based, Trypanosoma brucei brucei; details: Trypanosoma brucei
L. major amastigote = L. major amastigote assay; assay type: cell-based; details: Leishmania major
P. falciparum D6 = P. falciparum D6 assay; assay type: cell-based; details: Plasmodium falciparum; strain D6
P. falciparum W2 = P. falciparum W2 assay; assay type: cell-based; details: Plasmodium falciparum; strain W2; read-out: P. falciparum W2 (EC50)
logD = assay type: physicochemical
in vitro = details: for fraction unbound at 4 h, 5 μM: mice plasma
Method: Mice plasma (BALB/c mice, male—pool of 3 animals) was collected in-house using K2EDTA as anticoagulant. […] Glipizide (Cat #50402G) was purchased from Apin chemicals, Abingdon, Oxon. Albendazole (Cat #A4673) was purchased from Sigma. Phosphate buffered saline pH 7.4 (0.1 M sodium phosphate and 0.15 M sodium chloride) and RED device inserts were procured from Thermo Scientific, Meridian Rd., Rockford, Ill.
Further 1 mM stock was diluted 200-fold in mice plasma to prepare a concentration of 5 μM. The final DMSO concentration in plasma was 0.5%.
Rapid equilibrium dialysis was performed with a rapid equilibrium dialysis (RED) device containing dialysis membrane with a molecular weight cut-off of 8,000 Daltons. Each dialysis insert contains two chambers. The red chamber is for plasma while the white chamber is for buffer. A 200 μL aliquot of warfarin or test compound at 5 μM (triplicates) was separately added to the plasma chamber and 350 μL of phosphate buffer saline (pH 7.4) was added to the buffer chamber of the inserts. After sealing the RED device with an adhesive film, dialysis was performed at 37° C. with shaking at 100 rpm for 4 hours as per manufacturer's recommendation.
Recovery and stability: A 50 μL aliquot of warfarin or test compound was added to four 0.5 mL microfuse tubes. Two aliquots were frozen immediately (0 minute sample). The other two aliquots were incubated at 37° C. for 4 hours along with the RED device.
Following dialysis, an aliquot of 50 μL was removed from each well (both plasma and buffer side) and diluted with equal volume of opposite matrix (dialyzed with the other matrix) to nullify the matrix effect. Similarly, 50 μL of buffer was added to recovery and stability samples. An aliquot of 100 μL was submitted for LC-MS/MS analysis.
A 25 μL aliquot of warfarin and test compounds were crashed with 100 μL of acetonitrile containing internal standard (glipizide for warfarin and test compound) and vortexed for 5 minutes. The samples were centrifuged at 15,000 rpm at 4° C. for 10 min and 100 μL of supernatant was submitted for LCMS/MS analysis. Samples were monitored for parent compound in MRM mode using LC-MS/MS.

T. brucei brucei CA427 = assay: Drug efficacy in a mouse model of human African trypanosomiasis
From the text: (§1) The kinetoplast and nucleus can be tracked by microscopy during the cell cycle, which begins with trypanosomes harboring one nucleus (1N) and one kinetoplast (1K) (i.e., 1K1N cells). A kinetoplast that is replicating its (DNA) (i.e., kDNA) and increasing the organelle's mass is observed as an elongated kinetoplast (1Ke). Fission (segregation) of 1Ke kinetoplasts into two daughter kinetoplasts (2K) inside the same cell is coincident with the nuclear S-phase and produces 2K1N trypanosomes. Mitosis then occurs, yielding trypanosomes containing two kinetoplasts and two nuclei (2K2N). Following cell division, each daughter trypanosome has a 1K1N configuration of the organelles.
Swiss Webster (female) mice, aged 8-10 weeks, were intraperitoneally inoculated with 10^3 T. brucei CA427 strain using a 1 ml hypodermic syringe and 26G ½″ needle (day 0). The mice were assigned to control or NEU617 -treated groups (four per group). Treatment was initiated one-day post infection for two weeks. Control group received the vehicle only. Drug-treated mice were given 10 mg/kg NEU617 twice daily at 12 h interval (orally or intraperitoneally) based on their body weights. NEU617 was reconstituted in (i) DMSO for intraperitoneal (I.P.) administration, and (ii) N-methyl-2-pyrrolidone and polyethylene glycol 300 (1:9, v/v) for oral (P.O.) dosing. Drugs were prepared fresh daily and the concentration was adjusted so that the animals received <200 μl of solvent/dose/animal. […] Further dilutions of blood were made with bicine-buffered saline with glucose, as needed. Animals showing distress symptoms at any stage of the study were euthanized. All experiments were conducted following protocols approved by the Institutional Animal Care and Use Committee (IACUC).

[2] = system: endocytosis of transferrin; assay: Receptor-mediated endocytosis of transferrin in the trypanosome; assay type: cell-based, T. brucei
T. brucei = assay: Trypanosome DNA content and organelle (cell cycle) analysis; assay type: cell-based
From the text: as §1

[3] = Protein binding (Table 14); details: plasma

**Q.** For Fc1cccc(COc2ccc(Nc3ncnc4ccc(-c5cccc(N6CCOCC6)c5)cc34)cc2Cl)c1 [Compound 23a, N-(3-Chloro-4-((3-fluorobenzyl)oxy)phenyl)-6-(3-morpholinophenyl)quinazolin-4-amine], which EC50 ([1]; 48 h, concentration giving 50% inhibition of growth of T brucei brucei Lister 427 cells, 48 h, values ±7%, read-out: Tbb EC50) is on record?
**A.** 42 nM

**Q.** And the EC50 ([1]; read-out: EC50 expressed as ng/mL, T. brucei EC50 converted, FIG. 1 legend)?
**A.** 22.7 ng/mL

**Q.** What about the EC50 (L. major amastigote) of the same compound?
**A.** 8000 nM

**Q.** And the EC50 (P. falciparum D6)?
**A.** 230 nM

**Q.** And the EC50 (P. falciparum W2)?
**A.** 680 nM

**Q.** And the logD (logD)?
**A.** 3.2

**Q.** And the recovery at 4 h, 5 μM (in vitro; male, BALB/c, mouse, pH 7.4)?
**A.** 100%

**Q.** And the “% Bound Mean (SD)” value (in vitro; male, BALB/c, mouse, plasma, pH 7.4)?
**A.** 99.6%

**Q.** What about the fraction unbound at 4 h, 5 μM (in vitro; male, BALB/c, mouse, plasma, pH 7.4, % Bound R1, replicate 1, 37° C.) of the same compound?
**A.** 0.005

**Q.** And the fraction unbound at 4 h, 5 μM (in vitro; male, BALB/c, mouse, plasma, pH 7.4, % Bound R2, replicate 2, 37° C.)?
**A.** 0.003

**Q.** What about the “% compound remaining at 4 h” value (in vitro; plasma stability, 37° C.) of the same compound?
**A.** 85%

**Q.** What about the “delay of detection of trypanosomes in the blood” value (T. brucei brucei CA427; 10 mg/kg twice per day ip) of the same compound?
**A.** 24 h

**Q.** What about the “survival on day 8” value (T. brucei brucei CA427; 10 mg/kg twice per day ip, all untreated mice had died) of the same compound?
**A.** all alive

**Q.** What about the “mouse survival life span” value (T. brucei brucei CA427; 10 mg/kg twice per day ip, control group 5 days) of the same compound?
**A.** 9 days

**Q.** And the “time without parasites detected in the blood of infected mice” value (T. brucei brucei CA427; 40 mg/kg once per day from 24 h after infection, control positive on day 2)?
**A.** 3 days

**Q.** What about the drug-related toxicity (T. brucei brucei CA427; multiday regimen at 40 mg/kg) of the same compound?
**A.** drug-related toxicity was observed

**Q.** What about the “effect on endocytosis of transferrin” value [2] of the same compound?
**A.** no effect

**Q.** What about the “effect on kinetoplast, nucleus and cytokinesis (single cell microscopy)” value (T. brucei) of the same compound?
**A.** blocks duplication of the kinetoplast and arrests cytokinesis without inhibiting division of the trypanosome nucleus

**Q.** And the “proportion of cells with 4C DNA” value (T. brucei; 7 h incubation, 25% without drug)?
**A.** 40%

**Q.** What about the “fraction of cells with 2C-4C equivalents of DNA” value (T. brucei; 7 h incubation, 40% without drug) of the same compound?
**A.** 25%

**Q.** And the “Human liver microsomes median CLint” value?
**A.** 63.03 µL/min/mg

**Q.** What about the fraction unbound [3] of the same compound?
**A.** < 0.01
